Our source for the electrical conductivity values is the NIST ThermoML archive (doi:10.1016/j.jct.2014.12.017).

Structures are written as SMILES. ± gives the expanded uncertainty stated by the source.

The nature of the data set: wn = mass fraction of the nth substance listed. To be noted: 297.15 K; 101 kPa; Liquid; Alternating current cell with electrodes; w1 = 0.1.
For the compound `CCCCn1cc[n+](C)c1.COS(=O)(=O)[O-]` [1-butyl-3-methylimidazolium methyl sulfate] + O, the electrical conductivity came to 1.727 ± 0.017 S/m.

For `CCCCn1cc[n+](C)c1.[Cl-]` [1-butyl-3-methylimidazolium chloride] + O, the electrical conductivity is 3.43 ± 0.03 S/m.

Turning to `CCCCn1cc[n+](C)c1.N#CN=C=[N-]` [1-butyl-3-methylimidazolium dicyanamide] + O, the electrical conductivity is 1.9 ± 0.019 S/m. For `Cn1cc[n+](CCO)c1.[Br-]` [3-(2-hydroxyethyl)-1-methyl-1H-imidazolium bromide] + O, the electrical conductivity worked out at 3.58 ± 0.04 S/m. For the compound `CCCCn1cc[n+](C)c1.[O-][Cl+3]([O-])([O-])[O-]` [1-butyl-3-methylimidazolium perchlorate] + O, the electrical conductivity turned out to be 2.18 ± 0.02 S/m. In the case of `CCCCn1cc[n+](C)c1.O=S(=O)([O-])C(F)(F)F` [1-butyl-3-methylimidazolium trifluoromethanesulfonate] + O, the electrical conductivity was determined as 1.38 ± 0.014 S/m. The result for `CCCCn1cc[n+](C)c1.[Br-]` [1-butyl-3-methylimidazolium bromide] + O reads 2.87 ± 0.03 S/m; that for `C[n+]1ccn(CCO)c1.[Cl-]` [1-(2-hydroxyethyl)-3-methyl-1H-imidazolium chloride] + O, 4.19 ± 0.04 S/m; that for `CCCCn1cc[n+](C)c1.O=S(=O)([O-])O` [1-butyl-3-methylimidazolium hydrogen sulfate] + O, 7.63 ± 0.08 S/m.
